The structures appear in SMILES notation.

This series can be described thus: solubility test in water (ammonia alkali) by filter paper spot. It is filed as physicochemical. On the procedure: (Desalination process) After 83.0 parts of the compound of Formula (28) obtained in the fifth process was dissolved in 800 parts of water, 900 parts of methanol was added, and the deposited coloring matter was filtered and then dried to obtain 66.4 parts of desalted black coloring matter of Formula (28) (a compound No. 1 in Table 1: Na salt). The maximum absorption wavelength (λ max) of this coloring matter in water was 619 nm, and solubility test in water (ammonia alkali) by filter paper spot was no less than 100 g/l. [drawing 72]
As to `COc1ccc(N=Nc2c(S(=O)(=O)O)cc3c(S(=O)(=O)O)c(N=Nc4cc(S(=O)(=O)O)c5cc(S(=O)(=O)O)c(N=Nc6ccc7c(O)c(N=Nc8ccccc8S(=O)(=O)O)c(S(=O)(=O)O)cc7c6)c(O)c5c4N)ccc3c2O)c(S(=O)(=O)O)c1` [No. 1], the solubility (as a rule, the dissolved amount per volume that the medium holds) is ≥ 100 mg/mL. `COc1ccc(N=Nc2c(S(=O)(=O)O)cc3cc(S(=O)(=O)O)c(N=Nc4cc(S(=O)(=O)O)c5cc(S(=O)(=O)O)c(N=Nc6ccc7c(O)c(N=Nc8ccccc8S(=O)(=O)O)c(S(=O)(=O)O)cc7c6)c(O)c5c4N)cc3c2O)c(S(=O)(=O)O)c1` [No. 2]: the solubility was ≥ 100 mg/mL. With `Nc1c(N=Nc2ccc3cc(S(=O)(=O)O)c(N=Nc4ccc([N+](=O)[O-])cc4S(=O)(=O)O)c(O)c3c2)cc(S(=O)(=O)O)c2cc(S(=O)(=O)O)c(N=Nc3ccc4c(O)c(N=Nc5ccc([N+](=O)[O-])cc5S(=O)(=O)O)c(S(=O)(=O)O)cc4c3S(=O)(=O)O)c(O)c12` [No. 6] the figure was ≥ 100 mg/mL; with `Nc1c(N=Nc2cc3c(O)c(N=Nc4ccc([N+](=O)[O-])cc4S(=O)(=O)O)c(S(=O)(=O)O)cc3cc2S(=O)(=O)O)cc(S(=O)(=O)O)c2cc(S(=O)(=O)O)c(N=Nc3ccc4c(O)c(N=Nc5ccc([N+](=O)[O-])cc5S(=O)(=O)O)c(S(=O)(=O)O)cc4c3S(=O)(=O)O)c(O)c12` [No. 13], ≥ 100 mg/mL; with `Nc1c(N=Nc2ccc3c(O)c(N=Nc4ccc([N+](=O)[O-])cc4S(=O)(=O)O)c(S(=O)(=O)O)cc3c2S(=O)(=O)O)cc(S(=O)(=O)O)c2cc(S(=O)(=O)O)c(N=Nc3ccc4c(O)c(N=Nc5ccc([N+](=O)[O-])cc5S(=O)(=O)O)c(S(=O)(=O)O)cc4c3S(=O)(=O)O)c(O)c12` [No. 16], ≥ 100 mg/mL. As for `Nc1c(N=Nc2ccc3c(O)c(N=Nc4cc(C(=O)O)cc(C(=O)O)c4)c(S(=O)(=O)O)cc3c2S(=O)(=O)O)cc(S(=O)(=O)O)c2cc(S(=O)(=O)O)c(N=Nc3ccc4c(O)c(N=Nc5cc(C(=O)O)cc(C(=O)O)c5)c(S(=O)(=O)O)cc4c3S(=O)(=O)O)c(O)c12` [No. 17], the figure is ≥ 100 mg/mL; as for `COc1ccc(N=Nc2c(S(=O)(=O)O)cc3c(S(=O)(=O)O)c(N=Nc4cc(S(=O)(=O)O)c5cc(S(=O)(=O)O)c(N=Nc6ccc7c(O)c(N=Nc8ccc(OC)cc8S(=O)(=O)O)c(S(=O)(=O)O)cc7c6S(=O)(=O)O)c(O)c5c4N)ccc3c2O)c(S(=O)(=O)O)c1` [No. 19], ≥ 100 mg/mL; as for `COc1ccc(N=Nc2c(S(=O)(=O)O)cc3cc(N=Nc4c(S(=O)(=O)O)cc5c(S(=O)(=O)O)cc(N=Nc6ccc7cc(S(=O)(=O)O)c(N=Nc8ccc(OC)cc8S(=O)(=O)O)c(O)c7c6)c(N)c5c4O)ccc3c2O)c(S(=O)(=O)O)c1` [No. 21], ≥ 100 mg/mL.

Source of the values: patent US20070227388A1, “Tetrakisazo Compound, Coloring Matter for Recording, Ink Composition and Colored Article” (priority 2004, published 2007).
